Results published in ChEMBL document CHEMBL1151757, “Synthesis, radiosynthesis, and biological evaluation of fluorine-18-labeled 2beta-carbo(fluoroalkoxy)-3beta-(3'-((Z)-2-haloethenyl)phenyl)nortropanes: candidate radioligands for in vivo imaging of the serotonin transporter with positron emission tomography” (J Med Chem, 2008).

Experiments:
[1] = Drug uptake in anesthetized cynomolgus monkey brain occipital lobe after 0.5 mins postinjection; assay type: ADME, organism-based, Macaca fascicularis; settings: in vivo
[2] = Drug uptake in anesthetized cynomolgus monkey brain frontal lobe after 145 mins postinjection; assay type: ADME, organism-based, Macaca fascicularis; settings: in vivo
Midbrain [3] = test: Drug uptake in anesthetized cynomolgus monkey brain midbrain after 215 mins postinjection; assay type: ADME, organism-based, Macaca fascicularis; settings: in vivo
[4] = Ratio of drug uptake in medulla to cerebellum in anesthetized cynomolgus monkey after 85 mins postinjection; assay type: ADME, organism-based, Macaca fascicularis; settings: in vivo
[5] = Drug uptake in anesthetized cynomolgus monkey brain occipital lobe after 225 mins postinjection; assay type: ADME, organism-based, Macaca fascicularis; settings: in vivo, 3.75 h
Caudate [6] = test: Drug uptake in anesthetized cynomolgus monkey brain caudate after 45 mins postinjection; assay type: ADME, organism-based, Macaca fascicularis, Caudate nucleus; settings: in vivo, 0.75 h
Medulla [7] = test: Drug uptake in anesthetized cynomolgus monkey brain medulla after 27.5 mins postinjection; assay type: ADME, organism-based, Macaca fascicularis; settings: in vivo
[8] = Drug uptake in anesthetized cynomolgus monkey brain frontal lobe after 3.5 mins postinjection; assay type: ADME, organism-based, Macaca fascicularis; settings: in vivo
Caudate [9] = test: Drug uptake in anesthetized cynomolgus monkey brain caudate after 22.5 mins postinjection; assay type: ADME, organism-based, Macaca fascicularis, Caudate nucleus; settings: in vivo, 0.375 h
Pons [10] = test: Drug uptake in anesthetized cynomolgus monkey brain pons after 45 mins postinjection; assay type: ADME, organism-based, Macaca fascicularis; settings: in vivo, 0.75 h
Caudate [11] = test: Drug uptake in anesthetized cynomolgus monkey brain caudate after 35 mins postinjection; assay type: ADME, organism-based, Macaca fascicularis, Caudate nucleus; settings: in vivo
Caudate [12] = test: Drug uptake in anesthetized cynomolgus monkey brain caudate after 18.5 mins postinjection; assay type: ADME, organism-based, Macaca fascicularis, Caudate nucleus; settings: in vivo
Thalamus [13] = test: Drug uptake in anesthetized cynomolgus monkey brain thalamus after 18.5 mins postinjection; assay type: ADME, organism-based, Macaca fascicularis; parameters: unit not given here; settings: in vivo
[14] = Drug uptake in anesthetized cynomolgus monkey brain frontal lobe after 9.5 mins postinjection; assay type: ADME, organism-based, Macaca fascicularis; settings: in vivo
[15] = Ratio of drug uptake in medulla to cerebellum in anesthetized cynomolgus monkey after 18.5 mins postinjection; assay type: ADME, organism-based, Macaca fascicularis; settings: in vivo
[16] = Ratio of drug uptake in occipital lobe to cerebellum in anesthetized cynomolgus monkey after 18.5 mins postinjection; assay type: ADME, organism-based, Macaca fascicularis; settings: in vivo
Thalamus [17] = test: Drug uptake in anesthetized cynomolgus monkey brain thalamus after 125 mins postinjection; assay type: ADME, organism-based, Macaca fascicularis; parameters: unit not given here; settings: in vivo
Thalamus [18] = test: Drug uptake in anesthetized cynomolgus monkey brain thalamus after 2.5 mins postinjection; assay type: ADME, organism-based, Macaca fascicularis; parameters: unit not given here; settings: in vivo
Medulla [19] = test: Drug uptake in anesthetized cynomolgus monkey brain medulla after 155 mins postinjection; assay type: ADME, organism-based, Macaca fascicularis; settings: in vivo
Pons [20] = test: Drug uptake in anesthetized cynomolgus monkey brain pons after 35 mins postinjection; assay type: ADME, organism-based, Macaca fascicularis; settings: in vivo
Putamen [21] = test: Drug uptake in anesthetized cynomolgus monkey brain putamen after 75 mins postinjection; assay type: ADME, organism-based, Macaca fascicularis; parameters: unit not given here; settings: in vivo, 1.25 h
[22] = Drug uptake in anesthetized cynomolgus monkey brain cerebellum after 9.5 mins postinjection; assay type: ADME, organism-based, Macaca fascicularis; settings: in vivo
Putamen [23] = test: Drug uptake in anesthetized cynomolgus monkey brain putamen after 4.5 mins postinjection; assay type: ADME, organism-based, Macaca fascicularis; parameters: unit not given here; settings: in vivo, 0.075 h
[24] = Ratio of drug uptake in midbrain to cerebellum in anesthetized cynomolgus monkey after 145 mins postinjection; assay type: ADME, organism-based, Macaca fascicularis; settings: in vivo
Midbrain [25] = test: Drug uptake in anesthetized cynomolgus monkey brain midbrain after 45 mins postinjection; assay type: ADME, organism-based, Macaca fascicularis; parameters: unit not given here; settings: in vivo, 0.75 h
[26] = Ratio of drug uptake in putamen to cerebellum in anesthetized cynomolgus monkey after 155 mins postinjection; assay type: ADME, organism-based, Macaca fascicularis; settings: in vivo
Thalamus [27] = test: Drug uptake in anesthetized cynomolgus monkey brain thalamus after 85 mins postinjection; assay type: ADME, organism-based, Macaca fascicularis; parameters: unit not given here; settings: in vivo
[28] = Drug uptake in anesthetized cynomolgus monkey brain frontal lobe after 65 mins postinjection; assay type: ADME, organism-based, Macaca fascicularis; settings: in vivo
[29] = Ratio of drug uptake in occipital lobe to cerebellum in anesthetized cynomolgus monkey after 4.5 mins postinjection; assay type: ADME, organism-based, Macaca fascicularis; settings: in vivo, 0.075 h
[30] = Ratio of drug uptake in putamen to cerebellum in anesthetized cynomolgus monkey after 75 mins postinjection; assay type: ADME, organism-based, Macaca fascicularis; settings: in vivo, 1.25 h
[31] = Ratio of drug uptake in medulla to cerebellum in anesthetized cynomolgus monkey after 0.5 mins postinjection; assay type: ADME, organism-based, Macaca fascicularis; settings: in vivo
Medulla [32] = test: Drug uptake in anesthetized cynomolgus monkey brain medulla after 165 mins postinjection; assay type: ADME, organism-based, Macaca fascicularis; settings: in vivo, 2.75 h
Medulla [33] = test: Drug uptake in anesthetized cynomolgus monkey brain medulla after 225 mins postinjection; assay type: ADME, organism-based, Macaca fascicularis; settings: in vivo, 3.75 h
[34] = Drug uptake in anesthetized cynomolgus monkey brain occipital lobe after 135 mins postinjection; assay type: ADME, organism-based, Macaca fascicularis; settings: in vivo, 2.25 h
Thalamus [35] = test: Drug uptake in anesthetized cynomolgus monkey brain thalamus after 95 mins postinjection; assay type: ADME, organism-based, Macaca fascicularis; parameters: unit not given here; settings: in vivo
[36] = Ratio of drug uptake in putamen to cerebellum in anesthetized cynomolgus monkey after 3.5 mins postinjection; assay type: ADME, organism-based, Macaca fascicularis; settings: in vivo
Midbrain [37] = test: Drug uptake in anesthetized cynomolgus monkey brain midbrain after 0.5 mins postinjection; assay type: ADME, organism-based, Macaca fascicularis; parameters: unit not given here; settings: in vivo
Thalamus [38] = test: Drug uptake in anesthetized cynomolgus monkey brain thalamus after 105 mins postinjection; assay type: ADME, organism-based, Macaca fascicularis; parameters: unit not given here; settings: in vivo, 1.75 h
Midbrain [39] = test: Drug uptake in anesthetized cynomolgus monkey brain midbrain after 155 mins postinjection; assay type: ADME, organism-based, Macaca fascicularis; settings: in vivo
Midbrain [40] = test: Drug uptake in anesthetized cynomolgus monkey brain midbrain after 6.5 mins postinjection; assay type: ADME, organism-based, Macaca fascicularis; parameters: unit not given here; settings: in vivo
[41] = Drug uptake in anesthetized cynomolgus monkey brain frontal lobe after 4.5 mins postinjection; assay type: ADME, organism-based, Macaca fascicularis; settings: in vivo, 0.075 h
[42] = Drug uptake in anesthetized cynomolgus monkey brain cerebellum after 75 mins postinjection; assay type: ADME, organism-based, Macaca fascicularis; settings: in vivo, 1.25 h
[43] = Ratio of drug uptake in medulla to cerebellum in anesthetized cynomolgus monkey after 155 mins postinjection; assay type: ADME, organism-based, Macaca fascicularis; settings: in vivo
Medulla [44] = test: Drug uptake in anesthetized cynomolgus monkey brain medulla after 12.5 mins postinjection; assay type: ADME, organism-based, Macaca fascicularis; settings: in vivo
Medulla [45] = test: Drug uptake in anesthetized cynomolgus monkey brain medulla after 4.5 mins postinjection; assay type: ADME, organism-based, Macaca fascicularis; settings: in vivo, 0.075 h
[46] = Drug uptake in anesthetized cynomolgus monkey brain frontal lobe after 0.5 mins postinjection; assay type: ADME, organism-based, Macaca fascicularis; settings: in vivo
Caudate [47] = test: Drug uptake in anesthetized cynomolgus monkey brain caudate after 55 mins postinjection; assay type: ADME, organism-based, Macaca fascicularis, Caudate nucleus; settings: in vivo
[48] = Drug uptake in anesthetized cynomolgus monkey brain frontal lobe after 165 mins postinjection; assay type: ADME, organism-based, Macaca fascicularis; settings: in vivo, 2.75 h
[49] = Drug uptake in anesthetized cynomolgus monkey brain occipital lobe after 45 mins postinjection; assay type: ADME, organism-based, Macaca fascicularis; settings: in vivo, 0.75 h
Caudate [50] = test: Drug uptake in anesthetized cynomolgus monkey brain caudate after 85 mins postinjection; assay type: ADME, organism-based, Macaca fascicularis, Caudate nucleus; settings: in vivo
Medulla [51] = test: Drug uptake in anesthetized cynomolgus monkey brain medulla after 45 mins postinjection; assay type: ADME, organism-based, Macaca fascicularis; settings: in vivo, 0.75 h
[52] = Ratio of drug uptake in caudate to cerebellum in anesthetized cynomolgus monkey after 95 mins postinjection; assay type: ADME, organism-based, Macaca fascicularis; settings: in vivo
[53] = Ratio of drug uptake in midbrain to cerebellum in anesthetized cynomolgus monkey after 22.5 mins postinjection; assay type: ADME, organism-based, Macaca fascicularis; settings: in vivo, 0.375 h
[54] = Drug uptake in anesthetized cynomolgus monkey brain occipital lobe after 75 mins postinjection; assay type: ADME, organism-based, Macaca fascicularis; settings: in vivo, 1.25 h
[55] = Drug uptake in anesthetized cynomolgus monkey brain cerebellum after 22.5 mins postinjection; assay type: ADME, organism-based, Macaca fascicularis; settings: in vivo, 0.375 h
Medulla [56] = test: Drug uptake in anesthetized cynomolgus monkey brain medulla after 175 mins postinjection; assay type: ADME, organism-based, Macaca fascicularis; settings: in vivo
[57] = Drug uptake in anesthetized cynomolgus monkey brain frontal lobe after 175 mins postinjection; assay type: ADME, organism-based, Macaca fascicularis; settings: in vivo
Thalamus [58] = test: Drug uptake in anesthetized cynomolgus monkey brain thalamus after 12.5 mins postinjection; assay type: ADME, organism-based, Macaca fascicularis; parameters: unit not given here; settings: in vivo
Caudate [59] = test: Drug uptake in anesthetized cynomolgus monkey brain caudate after 65 mins postinjection; assay type: ADME, organism-based, Macaca fascicularis, Caudate nucleus; settings: in vivo
Caudate [60] = test: Drug uptake in anesthetized cynomolgus monkey brain caudate after 155 mins postinjection; assay type: ADME, organism-based, Macaca fascicularis, Caudate nucleus; settings: in vivo
Caudate [61] = test: Drug uptake in anesthetized cynomolgus monkey brain caudate after 2.5 mins postinjection; assay type: ADME, organism-based, Macaca fascicularis, Caudate nucleus; settings: in vivo
[62] = Ratio of drug uptake in frontal lobe to cerebellum in anesthetized cynomolgus monkey after 145 mins postinjection; assay type: ADME, organism-based, Macaca fascicularis; settings: in vivo

Work on `O=C(OCCC[18F])C1C2CCC(CC1c1cccc(/C=C\Br)c1)N2` (configuration not stated) yielded a Drug uptake [1] of 0.01, a Drug uptake [2] of 2.85 and a Drug uptake (Midbrain [3]) of 4.58. It also gave a Ratio [4] of 1.4, a Drug uptake [5] of 2.54 and a Drug uptake (Caudate [6]) of 5.32. It also gave a Drug uptake (Medulla [7]) of 6.12, a Drug uptake [8] of 1.47 and a Drug uptake (Caudate [9]) of 4.63. The Drug uptake (Pons [10]) was 4.85, the Drug uptake (Caudate [11]) was 5.13 and the Drug uptake (Caudate [12]) was 4.53. The Drug uptake (Thalamus [13]) was 4.77, the Drug uptake [14] was 3.19 and the Ratio [15] was 1. For the same compound, the Ratio [16] was 0.7, the Drug uptake (Thalamus [17]) was 4.71 and the Drug uptake (Thalamus [18]) was 1.12. It also gave a Drug uptake (Medulla [19]) of 4.48, a Drug uptake (Pons [20]) of 5.08 and a Drug uptake (Putamen [21]) of 5.63. For the same compound, the Drug uptake [22] was 5.92, the Drug uptake (Putamen [23]) was 3.11 and the Ratio [24] was 1.8. It also gave a Drug uptake (Midbrain [25]) of 6.06, a Ratio [26] of 1.7 and a Drug uptake (Thalamus [27]) of 5.27. For the same compound, the Drug uptake [28] was 3.69, the Ratio [29] was 0.7 and the Ratio [30] was 1.4. It also gave a Ratio [31] of 2.4, a Drug uptake (Medulla [32]) of 4.42 and a Drug uptake (Medulla [33]) of 3.64. The Drug uptake [34] was 3.57, the Drug uptake (Thalamus [35]) was 5.16 and the Ratio [36] was 0.8. The Drug uptake (Midbrain [37]) was 0.01, the Drug uptake (Thalamus [38]) was 5.06 and the Drug uptake (Midbrain [39]) was 5.23. It also gave a Drug uptake (Midbrain [40]) of 4.35, a Drug uptake [41] of 1.85 and a Drug uptake [42] of 4.02. For the same compound, the Ratio [43] was 1.7, the Drug uptake (Medulla [44]) was 5.82 and the Drug uptake (Medulla [45]) was 3.95. The Drug uptake [46] was 0.01, the Drug uptake (Caudate [47]) was 5.31 and the Drug uptake [48] was 2.58. It also gave a Drug uptake [49] of 4.61, a Drug uptake (Caudate [50]) of 5.23 and a Drug uptake (Medulla [51]) of 5.8. It also gave a Ratio [52] of 1.3, a Ratio [53] of 1 and a Drug uptake [54] of 4.29. It also gave a Drug uptake [55] of 5.9, a Drug uptake (Medulla [56]) of 4.26 and a Drug uptake [57] of 2.51. The Drug uptake (Thalamus [58]) was 4.31, the Drug uptake (Caudate [59]) was 5.22 and the Drug uptake (Caudate [60]) was 4.18. It also gave a Drug uptake (Caudate [61]) of 0.83 and a Ratio [62] of 1.
